Experimental data taken from ChEMBL document CHEMBL1143479, “Carbonic anhydrase inhibitors: inhibition of the tumor-associated isozymes IX and XII with a library of aromatic and heteroaromatic sulfonamides” (Bioorg Med Chem Lett, 2005).

Tests used:
Carbonic anhydrase 9 = Carbonic anhydrase 9 (Homo sapiens, UniProt Q16790)
Carbonic anhydrase 12 = Carbonic anhydrase 12 (Homo sapiens, UniProt O43570)
Carbonic anhydrase 2 = Carbonic anhydrase 2 (Homo sapiens, UniProt P00918)
Carbonic anhydrase 1 = Carbonic anhydrase 1 (Homo sapiens, UniProt P00915)
Chain of Carbonic anhydrase 1 (P00915 whole entry): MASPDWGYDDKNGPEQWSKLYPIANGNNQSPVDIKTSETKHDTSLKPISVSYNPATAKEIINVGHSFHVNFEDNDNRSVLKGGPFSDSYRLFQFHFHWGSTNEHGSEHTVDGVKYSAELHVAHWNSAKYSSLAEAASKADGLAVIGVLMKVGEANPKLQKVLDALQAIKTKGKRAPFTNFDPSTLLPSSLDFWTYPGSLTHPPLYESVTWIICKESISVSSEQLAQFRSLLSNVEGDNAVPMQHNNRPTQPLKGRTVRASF

Chain of Carbonic anhydrase 12 (O43570 whole entry): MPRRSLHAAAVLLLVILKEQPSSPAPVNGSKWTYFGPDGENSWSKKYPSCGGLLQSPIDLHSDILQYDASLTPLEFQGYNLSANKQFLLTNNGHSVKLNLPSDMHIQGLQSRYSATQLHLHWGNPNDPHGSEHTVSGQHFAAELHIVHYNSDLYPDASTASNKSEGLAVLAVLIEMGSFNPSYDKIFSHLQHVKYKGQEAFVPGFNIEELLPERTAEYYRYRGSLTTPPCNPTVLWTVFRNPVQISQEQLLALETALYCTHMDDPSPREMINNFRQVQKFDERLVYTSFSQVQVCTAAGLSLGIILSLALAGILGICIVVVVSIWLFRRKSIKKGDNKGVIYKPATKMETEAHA

Row | Ki (Carbonic anhydrase 9) | Ki (Carbonic anhydrase 12) | Ki (Carbonic anhydrase 1) | SMILES | Ki (Carbonic anhydrase 2)
1 | 79 nM | – | – | CCCCC(=O)Nc1ccc(S(N)(=O)=O)cc1 | –
2 | 83 nM | – | – | CCCC(=O)Nc1ccc(S(N)(=O)=O)cc1 | –
3 | – | 49 nM | – | CC(=O)Nc1ccc(S(N)(=O)=O)cc1 | –
4 | 14 nM | 10 nM | 1500 nM | NS(=O)(=O)c1cccc(NC(=O)Nc2ccccc2)c1 | –
5 | – | 79 nM | 37 nM | NS(=O)(=O)c1ccc(CCNC(=S)Nc2ccc(S(N)(=O)=O)cc2)cc1 | 4 nM
6 | 139 nM | – | – | CC(C)C(=O)Nc1ccc(S(N)(=O)=O)cc1 | –
7 | 136 nM | – | – | CC(C)(C)C(=O)Nc1ccc(S(N)(=O)=O)cc1 | –
8 | 37 nM | – | – | CC(=O)Nc1ccc(Nc2ccc(S(N)(=O)=O)cc2)cc1 | –

Row | SMILES | Ki (Carbonic anhydrase 9) | Ki (Carbonic anhydrase 12) | Ki (Carbonic anhydrase 1) | Ki (Carbonic anhydrase 2)
9 | NS(=O)(=O)c1ccc(CCNC(=S)Nc2ccccc2)cc1 | 21 nM | 24 nM | 50 nM | 53 nM
